Source: ChEMBL document CHEMBL6127035, “Novel pyridazinone derivatives bind to KSRP: Synthesis, anti-tumor biological evaluations and modelling insights” (Eur J Med Chem, 2024)
pIC50: −log10 of the molar value.

Tests used:
4T1 = assay: Antiproliferative activity against mouse 4T1 cells assessed as reduction in cell viability incubated for 2 days by MTT assay; type: functional, cell-based; conditions: 4T1, 48 h
MDA-MB-231 = assay: Antiproliferative activity against human MDA-MB-231 cells assessed as reduction in cell viability incubated for 2 days by MTT assay; type: functional, cell-based; conditions: MDA-MB-231, 48 h
MCF7 = assay: Antiproliferative activity against human MCF7 cells assessed as reduction in cell viability incubated for 2 days by MTT assay; type: functional, cell-based; conditions: MCF7, 48 h
NCI-H460 = assay: Antiproliferative activity against human NCI-H460 cells assessed as reduction in cell viability incubated for 2 days by MTT assay; type: functional, cell-based; conditions: NCI-H460, 48 h
HCT-116 = assay: Antiproliferative activity against human HCT-116 cells assessed as reduction in cell viability incubated for 2 days by MTT assay; type: functional, cell-based; conditions: HCT-116, 48 h
[1] = Cytotoxicity against human L02 cells assessed as reduction in cell viability incubated for 2 days by MTT assay; type: toxicity, cell-based
U-87 MG = assay: Antiproliferative activity against human U-87 MG cells assessed as reduction in cell viability incubated for 2 days by MTT assay; type: functional, cell-based, U-87MG ATCC; conditions: 48 h
MIA PaCa-2 = assay: Antiproliferative activity against human MIA PaCa-2 cells assessed as reduction in cell viability incubated for 2 days by MTT assay; type: functional, cell-based; conditions: MIA PaCa-2, 48 h
A549 = assay: Antiproliferative activity against human A549 cells assessed as reduction in cell viability incubated for 2 days by MTT assay; type: functional, cell-based; conditions: A549, 48 h
KB = assay: Antiproliferative activity against human KB cells assessed as reduction in cell viability incubated for 2 days by MTT assay; type: functional, cell-based; conditions: 48 h

Compound | pIC50 (4T1) | pIC50 (MDA-MB-231) | pIC50 (MCF7) | pIC50 (NCI-H460) | pIC50 (HCT-116) | pIC50 (U-87 MG) | pIC50 (MIA PaCa-2) | pIC50 (A549) | pIC50 (KB) | IC50 at 2 days [1] [nM]
CCN(CCCN1CCCC1)S(=O)(=O)c1ccc(-n2ncc(OC)c(Cl)c2=O)cc1 | < 4.70 | < 4.70 | < 4.70 |  |  |  |  |  |  | 
NCCCCNS(=O)(=O)c1ccc(-n2ncc(Cl)c(Cl)c2=O)cc1 | < 5.00 | < 4.30 | < 4.70 |  |  |  |  |  |  | 
COCC(C)NS(=O)(=O)c1ccc(-n2ncc(NCCCCCNC(=O)CCCC[C@@H]3SC[C@@H]4NC(=O)N[C@@H]43)c(Cl)c2=O)cc1 (stereo partly specified) |  |  |  |  |  |  | < 4.30 |  | < 4.30 | 
CNCCOc1cnn(-c2ccc(S(=O)(=O)N(C)CCOS(C)(=O)=O)cc2)c(=O)c1Cl | < 5.00 | < 4.30 | < 4.70 |  |  |  |  |  |  | 

Second part, led by results:

pIC50 (4T1) | pIC50 (MDA-MB-231) | pIC50 (MCF7) | pIC50 (NCI-H460) | pIC50 (HCT-116) | pIC50 (U-87 MG) | pIC50 (MIA PaCa-2) | pIC50 (A549) | pIC50 (KB) | Compound | IC50 at 2 days [1] [nM]
5.74 | 5.12 | 5.35 | 5.99 | 6.06 | 6.24 | 6.36 | 5.68 | 6.30 | CC(CO)NS(=O)(=O)c1ccc(-n2ncc(Cl)c(Cl)c2=O)cc1 (stereo unspecified) | 4660
5.84 | 4.84 | 5.29 | 6.13 | 6.44 | 6.44 | 6.38 | 5.90 | 6.46 | CC(C)C(CO)NS(=O)(=O)c1ccc(-n2ncc(Cl)c(Cl)c2=O)cc1 (stereo unspecified) | 3640
5.68 | 4.79 | 5.29 | 6.18 | 6.14 | 6.49 | 6.41 | 5.71 | 6.42 | CN(CCOS(C)(=O)=O)S(=O)(=O)c1ccc(-n2ncc(Cl)c(Cl)c2=O)cc1 | 4240
5.84 | 5.04 | 5.35 | 5.71 | 6.00 | 6.15 | 6.06 | 5.74 | 6.24 | O=c1c(Cl)c(Cl)cnn1-c1ccc(S(=O)(=O)NCCCN2CCCC2)cc1 | 8150
